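Growth conditions: 96-well plates. Treatment: test compound, 48 hours, 5 concentrations. Analysis: linear interpolation between bracketing concentrations; unreached endpoints set to highest concentration. TGI: total growth inhibition.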
Test system: NCI/ADR-RES ovarian
Test: NCI tumour cell line growth inhibition, 48 h

Row | Compound | TGI
1 | CC(=O)Nc1oc(C)c(C)c1S(=O)(=O)c1ccc(Cl)cc1 | > 100 µM
2 | COC1(c2ccc(Cl)cc2)SC=C(C)n2c1noc2=O (stereo not drawn) | 94.9 µM
3 | NC1CC(=O)c2cscc21 (stereo not drawn) | > 100 µM
4 | CC1=CC(=O)[C@@H](O)[C@]2(C)[C@H]3[C@@]4(O)OC[C@]35[C@H]([C@@H](C)[C@H]4O)[C@@H](OC(=O)C(C)(C)CO)C(=O)O[C@@H]5C[C@@H]12 | 51.3 µM

Test system: OVCAR-5 ovarian
Test: NCI tumour cell line growth inhibition, 48 h

Row | Compound | TGI
5 | COc1ccc(/C=c2/sc3n(c2=O)C(c2ccccc2)C2(O)CCCCC2N=3)cc1 (stereo not drawn) | > 12.5 µM
6 | CCCN(CCC)CCc1ccc(OC2=CCN(C)CC2)cc1 | > 100 µM
7 | O=C1OCN(c2ccccc2)C12CCN(Cc1ccccc1)CC2 | > 100 µM
8 | Cc1ccc2c(c1)[nH]c(=S)n2C=C(C(N)=O)C(N)=O | > 100 µM
9 | Cn1c(=O)c2c3ccccc3n(C)c2n(C)c1=O | > 100 µM
10 | CN(C)CCNc1ccc([N+](=O)[O-])c2sc3ccccc3c(=O)c12 | 14.6 µM
11 | COc1cc(NC(C)c2ccc3c(c2)OCCO3)cc(OC)c1OC (stereo not drawn) | > 100 µM
12 | CN1Cc2ccccc2S(=O)(=O)n2cccc2C1=O | > 100 µM
13 | S=c1nc2sc3c(c2c(Nc2ccc(Cl)cc2)[nH]1)CCCC3 | > 100 µM
14 | CCCCS(=O)(=O)CCC(N)P(=O)(O)O (stereo not drawn) | > 100 µM
15 | O=[N+]([O-])c1cccc2nc3ccccc3c(NCCCCNc3c4ccccc4nc4cccc([N+](=O)[O-])c34)c12 | 1.64 µM
16 | C/C=C/C(C#N)(/C=C/c1ccccc1)OP1(=O)OC(c2ccccc2)C(C)N1C (stereo not drawn) | 43.6 µM
17 | CN(C)CCCN1c2ccc([N+](=O)[O-])cc2CCc2cccc([N+](=O)[O-])c21 | 33.3 µM
18 | C=C(C)[C@@H]1CCC2=C[C@@H](OC2=O)[C@@H](C(=C)C)C2=CC(C(=O)O)=C(C1)O2 | > 100 µM
19 | S=C(N1CCN(c2ccc(Cl)c(Cl)c2)CC1)N1CCN(c2ccc(Cl)c(Cl)c2)CC1 | 44.7 µM
20 | Cc1ccc(S(=O)(=O)NC(=O)NC(CC(N)=O)C(=O)O)cc1 (stereo not drawn) | > 100 µM
21 | CSCCCN(CCCSC)CCCSC | > 100 µM
22 | COc1cc(-c2ccc(Br)[nH]2)[nH]c1C=NCC(C)C | 5.05 µM
23 | Cc1ccc(-c2n[nH]c(Cc3nc(-c4ccc(C)cc4)n[nH]3)n2)cc1 | > 100 µM
24 | Cc1nnc2n1N=C(c1ccccc1)/C(=C/c1ccc(-c3ccc(Cl)cc3)o1)S2 | 39.9 µM
25 | CN(CC(=O)N1CC(CCl)c2ccc([N+](=O)[O-])cc21)CC(=O)N1CC(CCl)c2ccc([N+](=O)[O-])cc21 (stereo not drawn) | > 100 µM
26 | COC(=O)NC(Nc1ccccn1)(C(F)(F)F)C(F)(F)F | > 100 µM
27 | CC(=O)Nc1oc(C)c(C)c1S(=O)(=O)c1ccc(Cl)cc1 | > 100 µM
28 | COC1(c2ccc(Cl)cc2)SC=C(C)n2c1noc2=O (stereo not drawn) | > 100 µM
29 | NC1CC(=O)c2cscc21 (stereo not drawn) | > 100 µM
30 | CC1=CC(=O)[C@@H](O)[C@]2(C)[C@H]3[C@@]4(O)OC[C@]35[C@H]([C@@H](C)[C@H]4O)[C@@H](OC(=O)C(C)(C)CO)C(=O)O[C@@H]5C[C@@H]12 | 23.3 µM

Test system: PC-3 prostate
Test: NCI tumour cell line growth inhibition, 48 h

Row | Compound | TGI
31 | COc1ccc(/C=c2/sc3n(c2=O)C(c2ccccc2)C2(O)CCCCC2N=3)cc1 (stereo not drawn) | > 12.5 µM
32 | CCCN(CCC)CCc1ccc(OC2=CCN(C)CC2)cc1 | > 100 µM
33 | O=C1OCN(c2ccccc2)C12CCN(Cc1ccccc1)CC2 | > 100 µM
34 | CN(C)CCNc1ccc([N+](=O)[O-])c2sc3ccccc3c(=O)c12 | 21.6 µM
35 | COc1cc(NC(C)c2ccc3c(c2)OCCO3)cc(OC)c1OC (stereo not drawn) | > 100 µM
36 | CN1Cc2ccccc2S(=O)(=O)n2cccc2C1=O | > 100 µM
37 | Cc1cccc2oc3c(CC(=O)O)cccc3c(=O)c12 | > 100 µM
38 | S=c1nc2sc3c(c2c(Nc2ccc(Cl)cc2)[nH]1)CCCC3 | > 100 µM
39 | CCCCS(=O)(=O)CCC(N)P(=O)(O)O (stereo not drawn) | > 100 µM
40 | O=[N+]([O-])c1cccc2nc3ccccc3c(NCCCCNc3c4ccccc4nc4cccc([N+](=O)[O-])c34)c12 | > 100 µM
41 | C/C=C/C(C#N)(/C=C/c1ccccc1)OP1(=O)OC(c2ccccc2)C(C)N1C (stereo not drawn) | 33.3 µM
42 | CN(C)CCCN1c2ccc([N+](=O)[O-])cc2CCc2cccc([N+](=O)[O-])c21 | 42.8 µM
43 | S=C(N1CCN(c2ccc(Cl)c(Cl)c2)CC1)N1CCN(c2ccc(Cl)c(Cl)c2)CC1 | 28.2 µM
44 | Cc1ccc(S(=O)(=O)NC(=O)NC(CC(N)=O)C(=O)O)cc1 (stereo not drawn) | > 100 µM
45 | CSCCCN(CCCSC)CCCSC | > 100 µM
46 | COc1cc(-c2ccc(Br)[nH]2)[nH]c1C=NCC(C)C | 4.39 µM
47 | Cc1ccc(-c2n[nH]c(Cc3nc(-c4ccc(C)cc4)n[nH]3)n2)cc1 | > 100 µM
48 | c1ccc(C(C2=Nc3cccc4cccc(c34)N2)c2ccccc2)cc1 | 87.3 µM
49 | Cc1nnc2n1N=C(c1ccccc1)/C(=C/c1ccc(-c3ccc(Cl)cc3)o1)S2 | 26 µM
50 | CN(CC(=O)N1CC(CCl)c2ccc([N+](=O)[O-])cc21)CC(=O)N1CC(CCl)c2ccc([N+](=O)[O-])cc21 (stereo not drawn) | > 100 µM
51 | CC(=O)Nc1oc(C)c(C)c1S(=O)(=O)c1ccc(Cl)cc1 | 83.4 µM
52 | COC1(c2ccc(Cl)cc2)SC=C(C)n2c1noc2=O (stereo not drawn) | > 100 µM
53 | NC1CC(=O)c2cscc21 (stereo not drawn) | > 100 µM
54 | CC1=CC(=O)[C@@H](O)[C@]2(C)[C@H]3[C@@]4(O)OC[C@]35[C@H]([C@@H](C)[C@H]4O)[C@@H](OC(=O)C(C)(C)CO)C(=O)O[C@@H]5C[C@@H]12 | 4.84 µM

Test system: SK-MEL-2 melanoma
Test: NCI tumour cell line growth inhibition, 48 h

Row | Compound | TGI
55 | COc1ccc(/C=c2/sc3n(c2=O)C(c2ccccc2)C2(O)CCCCC2N=3)cc1 (stereo not drawn) | > 12.5 µM
56 | CCCN(CCC)CCc1ccc(OC2=CCN(C)CC2)cc1 | > 100 µM
57 | O=C1OCN(c2ccccc2)C12CCN(Cc1ccccc1)CC2 | 48.4 µM
58 | Cc1ccc2c(c1)[nH]c(=S)n2C=C(C(N)=O)C(N)=O | > 100 µM
